# Experimental data: PMC6107127, “Characteristics of the mitochondrial and cellular uptake of MPP^+, as probed by the fluorescent mimic, 4'I-MPP^+” (PLoS ONE, 2018)
# Experiments:
# [1] = tested on: isolated intact MN9D mitochondria; assay: Effects of Ca2+ and inhibitors on MN9D mitochondrial uptake of 4'I-MPP+; design: species or system mouse
# Protocol: Intact MN9D cell mitochondria were incubated with 200 μM 4'I-MPP^+ for 45 min at 37 °C in 0, 500 or 1000 nM Ca^2+ containing KCl buffer. When mNCX inhibitors (KBR7943, 2APB and CGP37157) were used, mitochondrial suspensions were initially incubated with 10, 25 or 50 μM inhibitor in KCl buffer for 10 min at 37 °C and then with 200 μM 4'I- MPP^+ for 45 min at 37 °C. After the incubations, samples were centrifuged at 7,000 x g at 4 °C for 10 min and the mitochondrial pellets were treated with 75 μL of 0.1 M HClO4. […] To visualize the effect of CGP37157 on the mitochondrial uptake of 4'I-MPP^+ in live cells, HepG2 cells grown in glass-bottomed plates were incubated with 50 μM CGP37157 for 30 min initially and then with 100 μM 4'I-MPP^+ and 200 nM MitoTracker Green FM in KRB-HEPES for 1 h at 37 °C. After incubation cells were washed and reconstituted with KRB-HEPES, pH 7.4 and 4'I-MPP^+ and MitoTracker Green FM fluorescence images of cells were recorded as detailed above. Controls were treated under the same experimental conditions, except that CGP37157 was omitted from the initial incubation.
# S4 Fig. Effects of Benzamil, Verapamil, FFA, and ruthenium red on the MN9D mitochondrial uptake of 4'I-MPP+. MN9D mitochondrial suspensions were initially incubated with a 50 μM concentration of the desired agent (10 μM Ruthenium red) in KCl buffer for 10 min at 37 °C and then incubated with 200 μM 4'I-MPP+ for 45 min at 37 °C. After the incubations, the […] 4'I-MPP+ contents were quantified by RP-HPLC-UV as described in Material and methods. The data are represented as mean ± S.D (n=3).
# (also on this page, place not known: contol 10uM Ru red BenzamilVerapamil FFA 4I' MPP+ uptake (nmoles/mg) 0.0 0.1 0.2 0.3 0.4 0.5)
# (1 picture or pasted object on this page, not shown here)
# [2] = Relative HPLC elution times and hydrophobicities; type: physicochemical
# HepG2 cells [3] = assay: Effect of CGP37157 and KBR7943 on 4'I-MPP+-mediated mitochondrial membrane depolarization (TMRM); type: cell-based, human; details: 50 μM pre-treatment 30 min, 100 μM 4'I-MPP+
# Protocol: HepG2 cells grown in glass-bottomed plates for two days were treated with 50 μM CGP37157 or KBR7943 in KRB-HEPES for 30 min followed by 50 nM TMRM in KRB-HEPES for 45 min. Then plates were mounted on the stage of the microscope and mitochondrial membrane depolarization upon the treatment with 100 μM 4'I-MPP^+ was measured as a function of time as detailed above. The effect of CGP37157 on the 4'I-MPP^+ mediated mitochondrial membrane depolarization at longer time periods was monitored by observing the reduction of TMRM fluorescence from 0 to 4 h incubations in the presence or absence of CGP37157. HepG2 cells were incubated with or without 10 μM CGP37157 followed by 50 nM TMRM, and finally with 4'I-MPP^+ (100 μM, 0 or 4 h) and the intracellular TMRM fluorescence was recorded. Controls were carried out using an identical protocol except that either CGP37157 or 4'I-MPP^+ were omitted from the incubation media.
# MN9D cells [4] = assay: Cellular uptake of MPP+ and 4'I-MPP+ (HPLC-UV / fluorescence); type: cell-based, mouse; details: 100 μM toxin, 60 min, 37 °C, KRB-HEPES
# Protocol: (§1) Cells were seeded into 12-well plates at 0.25 x 10^6 cells/well and grown 2–3 days to about 70–80% confluency. The media was removed and a solution containing 100 μM MPP^+ or 4'I-MPP^+ in warm KRB-HEPES (or without Ca^2+ and with 1.4 mM EGTA) was added to each well and incubated at 37 °C for the desired period of time (see Figure legends for further details). After the incubations, the media were removed and cells were washed with ice-cold KRB-HEPES. Washed cells were suspended in 1.0 mL of ice-cold KRB-HEPES and 50 μL aliquots were withdrawn for protein determination. The remaining cell suspensions were centrifuged at 5000 x g at 4 °C for 5 min and the cell pellets were treated with 75 μL of 0.1 M HClO4. The coagulated proteins were pelleted by centrifugation at 13,200 x g at 4 °C for 8 min and the MPP^+ or 4'I-MPP^+ contents of the supernatants were determined by C18-reversed-phase HPLC-UV (HPLC-UV) as previously described using standard curves constructed from authentic standards. The standard curves for HPLC-UV quantifications were constructed using authentic samples of MPP^+ and 4'I-MPP^+ under the same HPLC-UV separation conditions (S1 Fig).
# (§2) To quantify 4'I-MPP^+ uptake by fluorescence, MN9D or HepG2 cells grown in glass bottomed plates, washed, and reconstituted with KRB-HEPES (1.0 mL), pH 7.4, and mounted on the stage of a Nikon ECLIPSE Ti-S inverted fluorescence microscope. […]
# HepG2 cells [5] = assay: as above; type: cell-based, human; details: 100 μM toxin, 60 min
# Protocol: as §1, §2
# MN9D cells [6] = assay: MTT cell viability assay; type: cell-based; details: Mus musculus, 16 h incubation
# Protocol: (§3) Cell viability was determined by the MTT [3-(4,5-dimethylthiazol-2-yl)-2,5-diphenyltetrazolium bromide)] assay. Briefly, cells were seeded on 96-well plates and allowed to grow to about 70–80% confluence. Prior to the experiment, culture media was replaced with KRB-HCO3^- containing desired concentrations of MPP^+ or 4'I-MPP^+ and incubated for 16 h at 37 °C. After the incubation, 10 μL of 5 mg/mL MTT solution was added to each well and incubated for 2 h at 37 °C. The resulting formazan was solubilized by the addition of 210 μL detergent solution [50% DMF/H2O (v/v), 20% SDS (w/v)] followed by incubation at 37 °C for 12 h. The cell viabilities were determined by quantifying solubilized formazan by measuring the difference in the absorbance at 570 nm and 650 nm. Results were expressed as % viability of MPP^+ or 4'I-MPP^+ treated cells with respect to control cells, which were treated under the same conditions except in the absence of the MPP^+ or 4'I-MPP^+.
# HepG2 cells [7] = assay: MTT cell viability assay; type: cell-based, human; details: MPP+ at 0–1000 μM, 4'I-MPP+ at 0–200 μM; 16 h
# Protocol: as §3
# [8] = tested on: rat brain mitochondrial complex-I (NADH: ubiquinone oxidoreductase); assay: Ubiquinone dependent NADH oxidation (complex-I inhibition); type: biochemical
# Protocol: Isolated rat brain mitochondria were lysed by freeze-thawing in hypotonic media containing 25 mM K3PO4 and 5 mM MgCl2, pH 7.2 [22]. The complex-I (i.e. NADH: ubiquinone oxidoreductase) activity of mitochondrial membrane fragments were determined according to the procedure of Birch-Machin and Turnbull. Briefly, mitochondrial membranes (50 μg protein) were incubated with 130 μM NADH (final concentration) and Antimycine A (2 μg/mL) in a 1.0 mL assay solution containing 25 mM K3PO4, 5 mM MgCl2, 2 mM KCN, 2.5 mg/mL bovine serum albumin, pH 7.2, for 2 min at 37 °C with or without rotenone, MPP^+ or 4'I-MPP^+ (for further details see the corresponding figure legends). The complex-I mediated ubiquinone dependent NADH oxidation was initiated by adding ubiquinone-1 to a final concentration of 65 μM and the initial rates of the reactions were monitored by following the decrease in absorbance at 340 nm with respect to 425 nm reference wavelength for 5 min.
# MN9D cells [9] = assay: Intracellular ATP levels; type: cell-based, mouse; details: 100 μM, 6 h at 37 °C
# Protocol: (§4) Cells grown in 12-well plates were treated with 100 μM MPP^+ or 4'I-MPP^+ in KRB-HEPES for 6 h at 37 °C. After the treatments, cells were suspended in 1 mL of ice-cold KRB-HEPES and 50 μL samples were withdrawn for protein quantification. The remaining cell suspensions were centrifuged for 3 min at 3,500 x g at 4 °C and the cell pellets were treated with 1 mL of lysis buffer (0.1 M Tris, 1% Triton X-100, pH 7.5) for 2 min and centrifuged at 3,500 x g for 3 min to remove the cell debris. The ATP contents of the supernatants were measured using a fluorometric ATP assay kit (BioVision, Milpitas CA, USA) following the manufacture’s guidelines. All ATP levels were normalized to the protein content of each sample.
# HepG2 cells [10] = assay: Intracellular ATP levels; type: cell-based, human; details: 100 μM, 6 h at 37 °C
# Protocol: as §4
# MN9D cells [11] = assay: Intracellular ROS (DCFH-DA); type: cell-based, mouse; details: 100 μM, 1 h at 37 °C
# Protocol: Cells grown in 12-well plates were incubated with 10 μM DCFH-DA in KRB-HEPES for 1 h. […] After the incubations, cells were washed, harvested, solubilized with 0.1 M Tris buffer (pH 7.5) containing 1% Triton X-100, and cell debris were removed by centrifugation at 13,200 x g for 8 min at 4 °C. The content of ROS-oxidized DCFH product, 2',7'-dichlorofluorescein (DCF) in the supernatants were quantified by fluorescence (Ex/Em 488/524 nm). The data were normalized to the protein contents of individual samples. ROS productions in DCFH-DA (50 μM) loaded 250 μM 4'I-MPP^+ treated (4 h) live MN9D cells were visualized by confocal fluorescence microscopy at Ex/Em 488/524 nm using a Leica TCS SP5II microscope.
# MN9D cells [12] = assay: Chromatin condensation test for apoptosis (DAPI); type: cell-based, mouse; details: 250 μM, 12 h
# Protocol: MN9D cells grown in glass-bottomed plates were treated with 250 μM MPP^+ or 4'I- MPP^+ for 12 h and then with 300 nM DAPI in KRB-HEPES for 15 min in the dark at 37 °C [24]. Then cells were rinsed and PBS was added to cover the cell layer. Increase in nuclear DAPI fluorescence (Ex/Em at 358/461 nm) due to chromatin condensation was observed using a Nikon ECLIPSE Ti-S inverted fluorescence microscope. The controls were treated similarly except that MPP^+ or 4'I-MPP^+ was omitted from the initial incubation medium.
# MN9D or HepG2 cells = assay: Mitochondrial membrane potential depolarization (TMRM); type: cell-based; details: 500 μM, in about 45 min
# Protocol: MN9D or HepG2 cells grown in glass-bottomed plates were treated with 50 nM TMRM (AnaSpec, Fremont CA, USA) in KRB-HEPES for 45 min in the dark. After mounting on the stage of a Nikon ECLIPSE Ti-S inverted fluorescence microscope, 15–20 ROIs with uniform fluorescence were selected and TMRM fluorescence at Ex/Em at 543/573 nm was recorded at 5 sec time intervals for 3 min. Then, MPP^+ or 4'I-MPP^+ was added to a final concentration of 500 or 100 μM, respectively and TMRM fluorescence measurements were continued for an additional 40 min for MPP^+ and 15 min for 4'I-MPP^+ at 15 sec time intervals. The background fluorescence was subtracted from the ROI fluorescence and averages of corrected data were used to estimate the magnitude of the mitochondrial membrane potential.
# [13] = 50 μM inhibitor at 200 μM 4'I-MPP+
# [14] = 50 μM agent, 200 μM 4'I-MPP+ (S4 Fig)
structure (smiles),measurement,setting,value
NCCOB(c1ccccc1)c1ccccc1 [2APB],effect on uptake of 4'I-MPP+,[1]; [13],inhibit the uptake
C[n+]1ccc(-c2ccc(Br)cc2)cc1 [4Br' MPP^+],relative elution time (hydrophobicity),[2]; Buffer:CH3CN 70:30,9.67
same,relative elution time (hydrophobicity),[2]; Buffer:CH3CN:MeOH 60:30:10,7.74
same,relative elution time (hydrophobicity),[2]; Buffer:CH3CN:MeOH 65:25:10,10.30
C[n+]1ccc(-c2ccc(Cl)cc2)cc1 [4Cl' MPP^+],relative elution time (hydrophobicity),[2]; Buffer:CH3CN 70:30,8.66
same,relative elution time (hydrophobicity),[2]; Buffer:CH3CN:MeOH 60:30:10,7.08
same,relative elution time (hydrophobicity),[2]; Buffer:CH3CN:MeOH 65:25:10,9.17
C[n+]1ccc(-c2ccc(F)cc2)cc1 [4F' MPP^+],relative elution time (hydrophobicity),[2]; Buffer:CH3CN 70:30,6.44
same,relative elution time (hydrophobicity),[2]; Buffer:CH3CN:MeOH 60:30:10,5.68
same,relative elution time (hydrophobicity),[2]; Buffer:CH3CN:MeOH 65:25:10,6.60
N=C(N)SCCc1ccc(OCc2ccc([N+](=O)[O-])cc2)cc1 [KBR7943],effect on uptake of 4'I-MPP+,[1]; [13],inhibit the uptake
same,effect on 4'I-MPP+ mitochondrial membrane depolarization,HepG2 cells [3],significantly reduced
"C[n+]1ccc(-c2ccccc2)cc1 [MPP^+, 1-methyl-4-phenylpyridinium]",cellular uptake in 1 h,MN9D cells [4],0.6 nmoles/mg of protein
same,cellular uptake in 60 min,HepG2 cells [5],about 1.2 nmoles/mg
same,IC50,MN9D cells [6],~125 µM
same,HepG2 cell toxicity,HepG2 cells [7],resistant
same,inhibition of the complex-I activity,[8]; 200 μM,21%
same,effect on intracellular ATP levels,MN9D cells [9],deplete intracellular ATP levels
same,effect on intracellular ATP levels,HepG2 cells [10],deplete intracellular ATP levels
same,effect on ROS production,MN9D cells [11],increase ROS production
same,apoptotic cell death (chromatin condensation),MN9D cells [12],cause apoptotic MN9D cell death
same,depolarization of the mitochondrial membrane,MN9D or HepG2 cells,20–50%
same,relative elution time (hydrophobicity),[2]; Buffer:CH3CN 70:30,5.92
same,relative elution time (hydrophobicity),[2]; Buffer:CH3CN:MeOH 60:30:10,5.28
same,relative elution time (hydrophobicity),[2]; Buffer:CH3CN:MeOH 65:25:10,6.02
NC(=NCc1ccccc1)NC(=O)c1nc(Cl)c(N)nc1N [benzamil],effect on uptake of 4'I-MPP+,[1]; [14],no significant effect
C=C(C)[C@H]1Cc2c(ccc3c2O[C@@H]2COc4cc(OC)c(OC)cc4[C@@H]2C3=O)O1 [rotenone],inhibition of NADH oxidation (complex-I) activity,[8]; 10 μM,about 90%
N.N.N.N.N.N.N.N.N.N.N.N.N.N.[Cl-].[Cl-].[Cl-].[Cl-].[Cl-].[Cl-].[O-2].[O-2].[Ru+3].[Ru+3].[Ru+4] [ruthenium red],inhibition of 4'I-MPP+ uptake,"[1]; 10 μM ruthenium red, 200 μM 4'I-MPP+",~ 10%
COc1ccc(CCN(C)CCCC(C#N)(c2ccc(OC)c(OC)c2)C(C)C)cc1OC (centres unmarked) [verapamil],effect on uptake of 4'I-MPP+,[1]; [14],no significant effect
